Each block holds one molecule with its values, some of them ahead of it. Numbered stars: 1 amine (or outer) side, 2 acyl side, 3 side chain; on linkers, the order of the positions; unused ones are H or OH. Square brackets hold non-standard residues; d marks the D form. Peptide text beside a SMILES is read from it. X1 = NCCCC[C@H](N)CN([C@@H](CCCCN)C(=O)[*:2])[*:1]; Tle = CC(C)(C)[C@H](N)C(=O)O
How the values were obtained:
[1] = biological target: T1, Neurotensin receptor type 1 (Homo sapiens, UniProt P30989); assay: Allosteric modulation of human GFP-fused PK-tagged Gq-coupled NTR1 expressed in CHOK1 cells assessed as induction of NT (8 to 13) peptide-mediated beta-arrestin recruitment measured after 90 mins by pathhunter assay; format: cell-based
T1 sequence (P30989 whole entry, the tested form may be a part): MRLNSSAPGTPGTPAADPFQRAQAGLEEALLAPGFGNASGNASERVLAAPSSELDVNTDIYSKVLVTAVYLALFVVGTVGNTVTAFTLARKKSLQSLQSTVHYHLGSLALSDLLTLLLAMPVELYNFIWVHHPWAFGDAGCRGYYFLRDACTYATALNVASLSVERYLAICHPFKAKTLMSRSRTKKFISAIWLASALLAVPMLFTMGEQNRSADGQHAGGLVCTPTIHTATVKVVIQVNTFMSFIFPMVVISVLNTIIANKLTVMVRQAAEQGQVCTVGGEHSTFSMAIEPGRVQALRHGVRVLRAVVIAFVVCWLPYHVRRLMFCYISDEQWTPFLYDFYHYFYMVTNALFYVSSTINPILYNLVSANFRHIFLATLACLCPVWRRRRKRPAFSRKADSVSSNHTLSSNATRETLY

[2] = Clearance in C57BL/6 mouse at 5 mg/kg, iv by LC-MS/MS analysis; format: ADME, organism-based; conditions: in vivo
[3] = Volume of distribution in C57BL/6 mouse at 5 mg/kg, iv by LC-MS/MS analysis; format: ADME, organism-based; conditions: in vivo
[4] = Clearance in Sprague-Dawley rat at 5 mg/kg, iv by LC-MS/MS analysis; format: ADME, organism-based; conditions: in vivo
[5] = Ratio of drug level in brain to plasma of Sprague-Dawley rat at 30 mg/kg, po measured after 4 to 8 hrs by LC-MS/MS analysis; format: ADME, organism-based; conditions: brain and plasma, read-out: BPR
[6] = biological target: T1, Neurotensin receptor type 1; assay: Positive allosteric modulation of recombinant human NTR1 expressed in HEK293 cells assessed as increase in [125I]-neurotensin binding measured after 45 mins; format: cell-based
[7] = Toxicity in DAT knockout C57BL/6J mouse assessed as hypotension at 12 mg/kg, ip; format: organism-based; conditions: in vivo
[8] = Toxicity in DAT knockout C57BL/6J mouse assessed as hypothermia at 12 mg/kg, ip; format: organism-based; conditions: in vivo
[9] = Toxicity in DAT knockout C57BL/6J mouse assessed as hypotension at 1 mg/kg, ip; format: organism-based; conditions: in vivo
[10] = Toxicity in DAT knockout C57BL/6J mouse assessed as hypothermia at 1 mg/kg, ip; format: organism-based; conditions: in vivo
[11] = AUC in C57BL/6 mouse at 30 mg/kg, po by LC-MS/MS analysis; format: ADME, organism-based; conditions: in vivo
[12] = Half life in C57BL/6 mouse at 30 mg/kg, po by LC-MS/MS analysis; format: ADME, organism-based; conditions: in vivo
[13] = Oral bioavailability in C57BL/6 mouse at 30 mg/kg by LC-MS/MS analysis; format: ADME, organism-based; conditions: in vivo
[14] = Ratio of drug level in brain to plasma of C57BL/6 mouse at 30 mg/kg, po measured after 1 hr by LC-MS/MS analysis; format: ADME, organism-based
[15] = AUC in Sprague-Dawley rat at 30 mg/kg, po by LC-MS/MS analysis; format: ADME, organism-based; conditions: in vivo
[16] = Half life in Sprague-Dawley rat at 30 mg/kg, po by LC-MS/MS analysis; format: ADME, organism-based; conditions: in vivo
[17] = Oral bioavailability in Sprague-Dawley rat at 30 mg/kg by LC-MS/MS analysis; format: ADME, organism-based; conditions: in vivo
[18] = Ratio of drug level in brain to plasma of Sprague-Dawley rat at 30 mg/kg, po measured after 1 hr by LC-MS/MS analysis; format: ADME, organism-based; conditions: brain and plasma, read-out: BPR
[19] = Toxicity in DAT knockout C57BL/6J mouse assessed as hypotension at 10 to 100 mg/kg, po; format: organism-based; conditions: in vivo
[20] = Toxicity in DAT knockout C57BL/6J mouse assessed as hypothermia at 10 to 100 mg/kg, po; format: organism-based; conditions: in vivo
[21] = biological target: Neurotensin receptor type 1 (Rattus norvegicus, UniProt P20789); assay: Displacement of [125I]neurotensin from rat brain NTR1
Neurotensin receptor type 1 (Rattus norvegicus, UniProt P20789), sequence (P20789 whole entry): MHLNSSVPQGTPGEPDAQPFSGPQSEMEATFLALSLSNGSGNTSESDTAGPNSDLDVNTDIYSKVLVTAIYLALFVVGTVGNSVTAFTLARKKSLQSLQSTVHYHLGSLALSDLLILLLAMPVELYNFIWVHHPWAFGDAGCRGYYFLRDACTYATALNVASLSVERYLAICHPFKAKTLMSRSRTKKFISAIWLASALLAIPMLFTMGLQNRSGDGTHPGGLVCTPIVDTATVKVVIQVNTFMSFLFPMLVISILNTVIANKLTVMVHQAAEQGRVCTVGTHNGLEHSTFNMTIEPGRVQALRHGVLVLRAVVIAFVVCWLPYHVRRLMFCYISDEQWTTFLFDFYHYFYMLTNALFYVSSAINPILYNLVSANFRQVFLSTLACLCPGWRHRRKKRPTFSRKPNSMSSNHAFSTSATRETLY

[22] = Cmax in C57BL/6 mouse at 30 mg/kg, po by LC-MS/MS analysis; format: ADME, organism-based; parameters: dose 30 mg/kg, route oral; conditions: in vivo

EC50 [1]: 98 nM
clearance [2]: 79.4 mL/min/kg
Vd [3]: 7.68 L/kg
SMILES: COc1ccccc1C1CCN(c2nc(C3(C)CC3)nc3ccc(N(C)CCO)cc23)CC1

EC50 [1]: 340 nM
clearance [2]: 44.8 mL/min/kg
clearance [4]: 81 mL/min/kg
Kp [5]: 0.98
EC50 [6]: 140 nM
SMILES: COc1ccccc1C1CCN(c2nc(C3(F)CC3)nc3ccc(N(C)CCO)cc23)CC1
Activity [7]: Non-Toxic
Activity [8]: Non-Toxic

SMILES: CCOC(=O)[C@H](CC(C)C)NC(=O)[C@@H](NC(=O)[C@H](Cc1c[nH]c2ccccc12)NC(=O)[C@@H]1CCCN1C(=O)[C@H](CCCCN)NC[C@@H](N)CCCCN)C(C)(C)C (H-[X1]PW[Tle]L-OEt)
Activity [9]: Toxic
Activity [10]: Toxic

AUC [11]: 4824 ng·h/mL
t1/2 [12]: 5.28 h
bioavailability ([13]; C57BL/6, mouse): 45%
BPR [14]: 0.54
AUC [15]: 2693 ng·h/mL
t1/2 [16]: 2.23 h
bioavailability [17]: 48%
Kp at 1 h [18]: 0.98
SMILES: COc1ccccc1C1CCN(c2nc(C3(F)CC3)nc3ccc(N(C)CCO)cc23)CC1.Cl
Activity [19]: Non-Toxic
Activity [20]: Non-Toxic

IC50 [21]: 82 nM
SMILES: COc1cccc(OC)c1-c1cc(C(=O)NC2(C(=O)O)C3CC4CC(C3)CC2C4)nn1-c1ccnc2cc(Cl)ccc12 (stereo not drawn) [REMINERTANT]

Cmax [22]: 627 ng/mL
AUC [11]: 3324 ng·h/mL
t1/2 [12]: 2.9 h
F ([13]; mouse): 52%
BPR [14]: 0.35
SMILES: COc1ccccc1C1CCN(c2nc(C3(C)CC3)nc3ccc(N(C)CCO)cc23)CC1.Cl
